Results: patent publication US9420793B2, “Antiparasitic compounds” (Avista Pharma Solutions, priority 2015, dated 2016)
Several values for one entry are separate records, joined by “and”; a condition that tells them apart may be missing. Equal entries are not always repeated. Where two headings read alike, the source gives them in different places.

Key:
[1] = tested on: Ctenocephalides felis; test: Ctenocephalides felis residual contact assay; details: for Contact EC50: 48 h, fleas
Method: Ctenocephalides felis Residual Contact Assay
A solution of the test compounds, individually and in combination was dispensed onto a substrate placed into a glass vial. The treated surface was allowed to dry before infesting each vial with 10 adult Ctenocephalides felis. The treated vials were held in a controlled environment and assessment was performed at 6, 24 and 48 hours after application in comparison with untreated controls glass vials and solvent-treated glass vials. Compounds were tested in duplicate and two separate trials (n=4).

[2] = tested on: R. sanguineus; test: In vitro tick contact assay, comparison with standards
Method: (§1) A solution of the test compounds was used to coat the inner wall of glass vials and to treat two filter papers. Once dried, one filter paper was placed in the cap of the vial and the other in the bottom of the vial. Each treated vial was infested with 10 ticks. Contact of the ticks with residues was induced by holding the vials in a controlled environment and assessment was performed at 12, 24 and 48 hours after application in comparison with untreated glass vials and solvent-treated glass vials. Compounds were tested in duplicate and two separate trials (n=4).

[3] = tested on: D. variabilis; test: as above
Method: as §1

[4] = tested on: A. americanum; test: as above
Method: as §1

[5] = tested on: I. scapularis; test: as above
Method: as §1

[6] = tested on: Ctenocephalides felis; details: for Ingestion EC50: fleas
Method: In Vitro Evaluation of Ingestion Activity Against Fleas (Ctenocephalides Felis)
For flea ingestion tests, an aliquot of each compound stock was added to organic bovine blood contained in an artificial feeding container, with a final DMSO concentration of 0.5%. Ten newly emerged unfed fleas, Ctenocephalides felis, from a laboratory colony, 0-7 days old, were aspirated into a chamber and exposed to the appropriate feeding container and held in a controlled environment at 35° C. Fleas were evaluated for % mortality at 24, 48, and 72 hours post infestation. Fleas showing normal movement and/or jumping ability were considered viable and those showing no movement after tapping the vials were scored as dead. The compound+blood mixture was replaced every 24 hours.

[7] = tested on: Dirofilaria immitis microfilariae; test: Dirofilaria immitis microfilariae motility assay; details: 72 h, read-out: concentration at which active, microfilariae motility
[8] = tested on: Aedes aegypti; test: In vitro evaluation of ingestion activity against mosquitoes; details: at 20 hours, compound in bovine blood, read-out: concentration at which active, mosquito ingestion
Method: In Vitro Evaluation of Ingestion Activity Against Mosquitoes (Aedes aegypti)
A solution of test compounds is added to bovine blood contained in a feeding chamber to reach the desired final concentration. Blood spiked with DMSO is prepared to serve as control. Adult female mosquitoes are introduced at the bottom of the chamber and allowed to feed on blood mixtures containing DMSO or test compounds for 30 minutes. Fully engorged mosquitoes are sorted into clean chambers after the blood meal and monitored for survival over 3 days. Replicates containing 10 mosquitoes are performed with each test compound concentration and results calculated as % mortality at specific time points.

SMILES | Contact EC50 [1] [ppm] | R. sanguineus Contact EC50 ([2]; 24 h) [ppm] | R. sanguineus Contact EC50 ([2]; 48 h) [ppm] | D. variabilis Contact EC50 ([3]; 24 h) [ppm] | D. variabilis Contact EC50 ([3]; 48 h) [ppm] | A. americanum Contact EC50 ([4]; 24 h) | A. americanum Contact EC50 ([4]; 48 h) [ppm] | I. scapularis Contact EC50 ([5]; 24 h) [ppm] | I. scapularis Contact EC50 ([5]; 48 h) [ppm] | Ingestion EC50 ([6]; 2 h) [ppm] | Ingestion EC50 ([6]; 24 h) [ppm] | minimal effective concentration [7] [µM] | minimal effective concentration [8] [µg/mL] | flea potency by contact relative to commercially available standards ([1]; versus fluralaner, afoxolaner) | flea potency by ingestion relative to commercially available standards ([6]; versus fluralaner, afoxolaner, (+/−)sarolaner)
O=C(CNC(=O)c1ccc(C2=NOC(c3cc(Cl)cc(C(F)(F)F)c3)(C(F)(F)F)C2)c2ccccc12)NCC(F)(F)F (stereo not drawn) [Afoxolaner] | >50 | >50 | 20.2 ± 5.0 | >50 | 12.35 ± 0.5 | 31.6 ppm and > 50 ppm | 11.3 ± 2.3 | 17.8 ± 5.9 | 5.31 ± 1.8 | 6.0 ± 2.9 | 0.13 ± 0.05 |  |  |  | 
O=C(CC(F)(F)F)N1CC2(C1)OCc1cc(C3=NSC(c4cc(Cl)c(F)c(Cl)c4)(C(F)(F)F)C3)ccc12 (stereo not drawn) [Compound 1, 1-[6-[5-(3,5-dichloro-4-fluoro-phenyl)-5-(trifluoromethyl)-4H-isothiazol-3-yl]spiro[1H-isobenzofuran-3,3′-azetidine]-1′-yl]-3,3,3-trifluoro-propan-1-one] | 29.0 ± 0.3 | 17.0 ± 3.8 | 4.6 ± 3.0 | 12.2 ± 0.6 | 5.0 ± 1.6 | 13.5 ± 5.1 ppm | 2.7 ± 0.4 | 2.0 ± 0.4 | 0.04 ± 0.02 | 2.6 ± 0.3 | 0.20 ± 0.10 | < 10 | < 1 | superior potency by contact | comparable potency by ingestion
Cc1cc(C2=NOC(c3cc(Cl)cc(Cl)c3)(C(F)(F)F)C2)ccc1C(=O)NCC(=O)NCC(F)(F)F (stereo not drawn) [Fluralaner] | >50 | 37.1 ± 16.3 | 9.8 ± 5.0 | 18.4 ± 3.0 | 4.9 ± 1.4 |  | 20.4 ± 10.7 | 6.4 ± 3.3 | 1.3 ± 0.2 | 1.6 ± 0.7 | 0.06 ± 0.02 |  |  |  | 
